Experimental data as given in paper PMC12097015, “Development of MDM2‐Targeting PROTAC for Advancing Bone Regeneration” (Advanced Science, 2025).

Legend:
[1] = target: T1, MDM2 (Homo sapiens, UniProt Q00987); assay: MDM2 degradation by western blot in hBMSCs; format: cell-based; parameters: endogenous in cells; host or cells: hBMSCs; settings: for MDM2 degradation (western blot) / decrease in MDM2 levels compared to the basal level: 10 μΜ for 1 h
Protocol: Human Bone Marrow‐derived Mesenchymal Stem Cells (hBMSCs) were provided by Professor Lee's laboratory, and cells from passages four to nine were used for all experiments. hBMSCs were cultured in alpha‐minimum essential medium (Welgene, LM008‐01) supplemented with 10% Fetal Bovine Serum (FBS) (Gibco, US origin, 16000–044) and 1% penicillin/streptomycin (Gibco, 15140‐122).
(§1) After discarding the medium and washing the cells twice with cold dPBS, the cells were collected using a scraper and lysed using RIPA buffer (GenDEPOT, R4200‐010) containing protease and phosphatase inhibitors (GenDEPOT, P3200‐001). The collected samples were centrifuged at 13 200 rpm for 10 min at 4 °C, and the supernatant containing total protein was collected. SDS‐PAGE gels (10–12%) were prepared, and protein samples were mixed with 5X loading buffer containing reducing agent (Biosesang, S2002) and heated at 98 °C for 5 min. Equal amounts of protein samples were loaded onto a gel, separated by electrophoresis, and transferred onto nitrocellulose membranes using a Dry Transfer Stacks Kit (Invitrogen, IB23001). The membrane was blocked with 5% nonfat milk in 1X TBST for 1 h at room temperature to prevent nonspecific binding. The membranes were incubated with primary antibodies specific to the target proteins overnight at 4 °C with gentle shaking. The next day, the membrane was washed three times with TBST at 10 min intervals to remove unbound primary antibodies. The membranes were incubated with secondary antibodies (anti‐rabbit and anti‐mouse) conjugated to horseradish peroxidase (HRP) for 1 h at room temperature. The membrane was washed three times with 1X TBST at 10 min intervals to remove unbound secondary antibodies. After washing, a chemiluminescent substrate (ECL, Millipore, WBULS0100) was applied to the membrane to visualize protein bands using a chemiluminescence detector (for the antibodies used, see Table S2, Supporting Information).
The DC50 and Dmax values were calculated by western blot band quantification according to compound concentrations. The quantification value was normalized to the value relative to the untreated group and calculated using the sigmoidal dose‐response (variable slope) equation in GraphPad Prism.
Target sequence in this assay (Q00987 whole entry): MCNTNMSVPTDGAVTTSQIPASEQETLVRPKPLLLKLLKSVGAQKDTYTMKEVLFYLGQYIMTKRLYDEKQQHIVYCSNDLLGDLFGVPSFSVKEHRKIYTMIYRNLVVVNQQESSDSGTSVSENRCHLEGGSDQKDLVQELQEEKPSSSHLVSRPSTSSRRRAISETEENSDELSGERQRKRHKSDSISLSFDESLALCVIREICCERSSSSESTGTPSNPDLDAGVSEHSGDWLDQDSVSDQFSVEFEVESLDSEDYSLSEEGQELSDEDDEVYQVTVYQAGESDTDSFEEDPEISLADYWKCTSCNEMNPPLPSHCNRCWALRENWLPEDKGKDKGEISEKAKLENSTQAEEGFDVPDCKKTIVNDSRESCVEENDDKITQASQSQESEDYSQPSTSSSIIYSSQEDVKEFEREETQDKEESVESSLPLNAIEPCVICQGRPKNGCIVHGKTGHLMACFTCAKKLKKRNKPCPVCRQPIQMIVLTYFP

[2] = system: EGFP‐MDM2; assay: EGFP-MDM2 fluorescence / live imaging degradation assay; format: cell-based
Protocol: HeLa cells were cultured in DMEM (Welgene, LM001‐05) supplemented with 10% FBS (Welgene, S001‐07). For transient transfection, the cells were seeded at ≈70% confluence. The following day, transfection was performed using Lipofectamine 3000 (Invitrogen, L3000015) for 24 h according to the manufacturer's protocol. The cells were transfected with 100 ng of EGFP‐MDM2 per well in the 96‐well plate and were transfected with 2 µg of MDM2 WT and 2 µg of HA‐ubiquitin, total 4 µg per well in the 6‐well plate.
To construct the EGFP‐MDM2 plasmid DNA, MDM2 WT was amplified by PCR using specific primers. The PCR products were digested with BamH1 and EcoR1 to generate compatible ends. The plasmid backbone, EGFP‐C1, previously digested with the same enzyme, was ligated into the digested PCR product using T4 ligase (Biolabs, M0202S). The resulting plasmid construct was confirmed using restriction enzyme digestion and DNA sequencing. MDM2 WT (#16233) and HA‐ubiquitin (#18712) were purchased from Addgene (used primer sequences, see Table S2, Supporting Information).
Real‐time Live cell imaging (phase contrast, EGFP fluorescence) was performed to monitor EGFP‐MDM2 intensity at 7 min intervals after compound treatment using Cytation5 (Agilent) laser autofocus conditions to capture EGFP fluorescence to assess intensity. For fluorescence imaging, the cells were fixed using 4% PFA and washed three times with 1X dPBS. Fluorescence imaging was performed using the Cytation5. The intensity of fluorescence was assessed by tracking the fluorescence of individual cells in each image using the Time‐lapse analyzer or ROI measure feature of the Fiji ImageJ software (Version 1.54 h, USA).

[3] = target: T1, MDM2; assay: Microscale thermophoresis (MST) binding assay; parameters: made in house; host or cells: E. coli BL21 (DE3); settings: His-Tag MDM2, n = 3, read-out: dissociation constant (Kd)
Target sequence in this assay (Q00987 whole entry, species assumed): as the sequence (Q00987 whole entry) above
Protocol: E. coli BL21 (DE3) competent cells transformed with pSPEL870 were used to express MDM2 protein.^[ [27] ^] The recombinant strain was cultured in 500 mL 2XYT at 37 °C until the optical density (OD600 ) reached 0.5. Protein expression was induced by adding 0.2 mM isopropyl β‐D‐1‐thiogalactopyranoside (IPTG; Bioshop, Canada) at 20 °C overnight. […] The protein was purified using Ni‐NTA resin (Qiagen, Germany), according to the manufacturer's protocol. The purified protein was buffer exchanged with phosphate‐buffered saline (PBS, pH 7.4) using a centrifugal filter unit (MWCO: 10 K; Merck Millipore, USA). The protein was stored at –20 °C in PBS with 20% glycerol and 1 mM dithiothreitol (DTT).
The His‐Tag MDM2 protein was labeled using a His‐Tag Labeling Kit RED‐tris‐NTA second Generation (NanoTemper, MO‐L018) according to the manufacturer's instructions. […] The final mixtures were transferred to capillaries (NanoTemper, MO‐K022) and the samples were measured using a Monolith NT.115Pico (NanoTemper) instrument (auto LED power; medium MST power). […] The signals were represented as normalized changes in fluorescence (Fnorm ) upon ligand binding. Baseline‐corrected normalized fluorescence (DFnorm ) was obtained from Fnorm values using MO Affinity Analysis, and the dissociation constants (Kd ) were determined by curve fitting (variable slope model) using GraphPad Prism 10.

[4] = system: hBMSCs; assay: Calcium deposit staining (X-Rhod-1) in hBMSCs; format: cell-based, human; settings: X‐Rhod‐1, p < 0.05
Protocol: hBMSCs were differentiated in the presence of the 10 mM β‐glycerophosphate (Sigma‐Aldrich, G9422) and 50 µM ascorbic acid (Sigma‐Aldrich, A4403) in culture medium for 10 d. Subsequently, the cells were fixed with 4% PFA for 30 min, followed by two washes with Mg^2+‐and Ca^2+‐free dPBS (Welgene, LB‐204). To stain for calcium, X‐Rhod‐1 (Invitrogen, X14210) dye was diluted in Mg^2+‐and Ca^2+‐free dPBS at a concentration of 1 µM and incubated at room temperature in the dark for 1 h. The cells were then washed five times with Mg^2+‐and Ca^2+‐free dPBS at 10 min intervals. The samples were observed under a Cytation5 microscope (Agilent Technologies) at a wavelength of 595 nm.

[5] = system: OVX-induced osteoporosis model; assay: Ovariectomy (OVX)-induced osteoporosis mouse model; format: in vivo, C57BL6 mice; settings: OVX mice
Protocol: -Establishment of Ovariectomized Mice Model: The experimental protocols were approved by the IACUC (Approval code: IACUC230118) at the CHA Laboratory Animal Research Center. The mice were handled in compliance with the Guidelines for the Care and Use of Animals at the institution. Female C57BL6 mice (seven weeks old (n = 57)) were randomly divided into six groups (n = 8-10): […] All surgeries and pump implantations were performed under aseptic conditions. Mice were anesthetized before removing both sides of the ovaries. In the fourth week following surgery, an Alzet osmotic pump (Durect Corp, #1004) was implanted in the mice. […] Images were acquired at an effective pixel size of 50 μm (130 kV and 60 μA radiation source; 1.0 mm aluminum filter). Subsequently, 3D images were reconstructed from the 2D X-ray projections by implementing the Feldkamp algorithm, and appropriate image corrections, including ring artifact correction, beam hardening correction, and fine-tuning, were processed using NRecon software (SkyScan 1173, Belgium). The dynamic image range (contrast limits) was determined at 0-0.3 in units of attenuation coefficient and was applied to all datasets for optimum image contrast. After acquisition and reconstruction of the datasets, images were first reoriented on each 3D plane using DataViewer software (SkyScan 1173, Belgium) to align the long axis of the femur parallel to the coronal and sagittal planes. Next, 3D morphometric analyses of the distal femur and body of the lumbar vertebrae were performed using CT-Analyzer software (SkyScan 1173, Belgium). Regarding the region of interest (ROI), this work analyzed the 1.5 mm […] trabecular bone of the distal femur metaphysis, excluding the growth plate. The ROIs were delineated using a freehand drawing tool while maintaining a […] clearance from the endosteal surface. […] A global threshold of 60 (1.01573 g cm^-3) was applied to all scans to extract a physiologically accurate representation of the trabecular bone phase. […] All quantitative and structural parameters followed the nomenclature and units recommended by the American Society for Bone and Mineral Research (ASBMR) Histomorphometry Nomenclature Committee. After data quantification,^[ [26b] ^] 3D rendered images were generated to visualize the analyzed regions using the marching cube method. -H&E staining: Following decalcification, the specimens were fixed in paraffin and longitudinally sliced to a thickness of 3 μm using a microtome. Subsequently, each sample was affixed to a slide and exposed to a temperature of 55 °C. […] The slides underwent a 1 min wash in flowing purified water and immersed in Harris hematoxylin-I for 5 min, followed by a 1 min wash under flowing tap water. Sections were briefly immersed in ammonia water for 30 s and washed with tap water for 3 min. Subsequently, the sections were stained with Eosin Y for 2 min and 30 s, followed by gradual drying in 95%-100% ethanol. Any residual stain was rinsed with distilled water and each section was mounted. -Masson's trichrome staining: Following deparaffinization and hydration, the sections underwent treatment with a mordant containing a 5% iron alum solution in a dry oven at 56 °C for 30 min. Sections were washed under running tap water for 5-6 min to remove picric acid. Sections were stained with Weigert's iron hematoxylin solution for 10 min, followed by rinsing with purified water. A 5 min staining with Biebrich scarlet-acid fuchsin solution ensued, succeeded by washing with purified water. The sections were immersed in a phosphomolybdic-phosphotungstic acid solution for 5 min. After discarding the solution, the sections were washed with distilled water. Differentiation was performed in 1% glacial acetic acid solution for 3 min. The solution was discarded, and the remaining stain was washed with distilled water.

[6] = system: osteocalcin (OCN); assay: Immunostaining of osteogenic markers in hBMSCs; format: cell-based, human; settings: 10 µM
[7] = system: hBMSCs; assay: Cell viability / apoptosis of hBMSCs; format: cell-based, human
[8] = target: T1, MDM2; assay: Immunoblot with the intracellular proteasome system blocked by a proteasome inhibitor; format: cell-based; settings: 0.5–2 μΜ carfilzomib with PROTAC
Protocol: as §1, with “After washing, a chemiluminescent substrate (ECL, Millipore, WBULS0100) was applied to the membrane to visualize protein bands using a chemiluminescence detector (for the antibodies used, see Table S2, Supporting Information).” left out
Target sequence in this assay (Q00987 whole entry, species assumed): as the sequence (Q00987 whole entry) above

[9] = alendronate comparison study, 0.5 mg kg^−1, n = 6

COc1ccc(C2=N[C@@H](c3ccc(Cl)cc3)[C@@H](c3ccc(Cl)cc3)N2C(=O)N2CCN(CC(=O)NCCOCCOCCNC(=O)CN3CCN(C(=O)N4C(c5ccc(OC)cc5OC(C)C)=N[C@H](c5ccc(Cl)cc5)[C@@H]4c4ccc(Cl)cc4)CC3=O)C(=O)C2)c(OC(C)C)c1 [CL117]
MDM2 degradation (western blot) [1]: did not induce the degradation of MDM2

COc1ccc(C2=N[C@H](c3ccc(Cl)cc3)[C@H](c3ccc(Cl)cc3)N2C(=O)N2CCN(CC(=O)OC(C)(C)C)C(=O)C2)c(OC(C)C)c1 [CL139]
MDM2 degradation (western blot) [1]: did not induce the degradation of MDM2

COc1ccc(C2=N[C@H](c3ccc(Cl)cc3)[C@H](c3ccc(Cl)cc3)N2C(=O)N2CCN(CC(=O)NCCCCCCCCCCCOc3cccc4c3C(=O)N(C3CCC(=O)NC3=O)C4=O)C(=O)C2)c(OC(C)C)c1 (stereo partly drawn) [CL145]
decrease in MDM2 levels compared to the basal level [1]: over 80%

COc1ccc(C2=NC(c3ccc(Cl)cc3)C(c3ccc(Cl)cc3)N2C(=O)N2CCN(CC(=O)NCCCCCCCC#Cc3cccc4c3C(=O)N(C3CCC(=O)NC3=O)C4=O)C(=O)C2)c(OC(C)C)c1 (stereo not drawn) [CL174]
concentration at which maximum degradation efficiency was achieved ([2]; live imaging, 0.01 to 10 µM): 1 µM
nuclear EGFP signal ([2]; live imaging, treatment for 4 h): almost completely turned off the nuclear EGFP signal
MDM2 degradation (western blot) [1]: effectively decreased MDM2 levels
decrease in MDM2 levels compared to the basal level [1]: over 80%
maximal degradation concentration (Dmax) ([1]; quantified western blot, 1 nM to 50 µM, n = 2): 0.5 μΜ
DC50 ([1]; quantified western blot, 1 nM to 50 µM, n = 2, read-out: half‐maximal degradation concentration (DC50)): 60 nM
Kd [3]: 1270 nM

O=C1CCC(N2Cc3c(C#CCCCNC(=O)c4ccc(NC(=O)[C@@H]5NC6(CCCCC6)[C@@]6(C(=O)Nc7cc(Cl)ccc76)[C@H]5c5cccc(Cl)c5F)cc4)cccc3C2=O)C(=O)N1 (stereo partly drawn) [MD224, reference compound]
degradation efficiency of EGFP‐MDM2 by concentration ([2]; low concentrations (0.01–0.1 µM) versus higher concentrations (1–10 µM)): greater degradation efficiency of EGFP‐MDM2 compared to higher concentrations

COc1ccc(C2=N[C@@H](c3ccc(Cl)cc3)[C@@H](c3ccc(Cl)cc3)N2C(=O)N2CCNC(=O)C2)c(OC(C)C)c1 [Nutlin-3, reference compound]
calcium deposits compared to the control group [4]: significantly increased
bone histology (H&E staining) versus OVX group ([5]; tibia and femur tissues): no significant differences
osteocalcin (OCN) protein intensity compared to the control group [6]: no statistically significant difference
cell viability [7]: without adversely affecting cell viability

NCCCC(O)(P(=O)(O)O)P(=O)(O)O [alendronate, reference compound]
increase in trabecular thickness (Tb.Th) relative to the OVX group [5, 9]: 17.07%
recovery in BV/TV relative to the OVX group [5, 9]: 38.66%

CC(C)C[C@H](NC(=O)[C@H](CCc1ccccc1)NC(=O)CN1CCOCC1)C(=O)N[C@@H](Cc1ccccc1)C(=O)N[C@@H](CC(C)C)C(=O)[C@@]1(C)CO1 [carfilzomib]
effect on PROTAC-induced MDM2 proteolysis [8]: blocked the efficacy of PROTAC in a dose‐dependent manner
